Assay results as given in US9321752B2, “Pyrazole derivative” (GREEN TECH CO., LTD., priority 2012, dated 2016).

Assays:
[1] = target: Recombinant three-repeat microtubule-binding domain (3R-MBD) of tau protein (Homo sapiens, UniProt P10636); test: Determination of tau aggregation inhibitory activity (thioflavin T fluorescence, heparin-induced); assay type: biochemical; conditions: for IC50: 10 μM tau 3R-MBD, 10 μM heparin, 37° C. for 16 hours, thioflavin T; for Emax: 16 h, maximum inhibition at the concentrations used (0.1, 0.3, 1, 3, and 10 μM)
Procedure: Recombinant three-repeat microtubule-binding domain (3R-MBD) of tau protein was expressed in E. coli and was purified and used for the experiment. The purified tau solution was diluted with a 50 mM Tris-HCl buffer (pH 7.6) to a final concentration of 10 μM. The test compounds were prepared using dimethylsulfoxide (hereinafter also referred to as DMSO) at 20-fold of their final concentrations and added to the tau solution so that the DMSO concentration would be 5%. To this solution, heparin was added so that the final concentration would be 10 μM and the plate was left to stand at 37° C. for 16 hours. Thioflavin T was added to the plate so that the concentration would be 10 μM and the fluorescence intensity was measured with a fluorescence plate reader (PerkinElmer, Inc.)(excitation wavelength: 440 nm; fluorescence wavelength: 486 nm). The final concentration of each compound at the time of measurement was set at 0.1, 0.3, 1, 3, and 10 μM. The sample to which only DMSO was added was used as a negative control and its fluorescence intensity was taken as 0% inhibitory activity to determine the 50% inhibitory concentration (IC50) of each compound.

[2] = Concentration measurement in brain after oral administration; assay type: in vivo; conditions: ICR mice (male, 7 weeks old), single dose of 5 mg/kg, whole brain, LC/MS/MS
Procedure: Each of the compounds of the present invention shown in Tables 40 and 41 and the compound of Example 2 of JP 2012-229208 A was orally administered to ICR mice (male, 7 weeks old) in a single dose of 5 mg/kg. At 3, 6 and 9 hours after the administration, 1, 3, 6 and 9 hours after the administration, or 1, 3, 6, 9 and 24 hours after the administration, the mice were subjected to perfusion by infusing physiological saline into the heart under inhalational anesthesia with isoflurane, and the whole brain was harvested. Physiological saline was added to the harvested brain in an amount equal to twice the wet weight of the brain and the brain was homogenized. Then, an equal volume of methanol was added thereto, and the mixture was deproteinized. The concentration of each compound in the sample was measured by LC/MS/MS.

Chain of Recombinant three-repeat microtubule-binding domain (3R-MBD) of tau protein (P10636 2-758 limits assumed): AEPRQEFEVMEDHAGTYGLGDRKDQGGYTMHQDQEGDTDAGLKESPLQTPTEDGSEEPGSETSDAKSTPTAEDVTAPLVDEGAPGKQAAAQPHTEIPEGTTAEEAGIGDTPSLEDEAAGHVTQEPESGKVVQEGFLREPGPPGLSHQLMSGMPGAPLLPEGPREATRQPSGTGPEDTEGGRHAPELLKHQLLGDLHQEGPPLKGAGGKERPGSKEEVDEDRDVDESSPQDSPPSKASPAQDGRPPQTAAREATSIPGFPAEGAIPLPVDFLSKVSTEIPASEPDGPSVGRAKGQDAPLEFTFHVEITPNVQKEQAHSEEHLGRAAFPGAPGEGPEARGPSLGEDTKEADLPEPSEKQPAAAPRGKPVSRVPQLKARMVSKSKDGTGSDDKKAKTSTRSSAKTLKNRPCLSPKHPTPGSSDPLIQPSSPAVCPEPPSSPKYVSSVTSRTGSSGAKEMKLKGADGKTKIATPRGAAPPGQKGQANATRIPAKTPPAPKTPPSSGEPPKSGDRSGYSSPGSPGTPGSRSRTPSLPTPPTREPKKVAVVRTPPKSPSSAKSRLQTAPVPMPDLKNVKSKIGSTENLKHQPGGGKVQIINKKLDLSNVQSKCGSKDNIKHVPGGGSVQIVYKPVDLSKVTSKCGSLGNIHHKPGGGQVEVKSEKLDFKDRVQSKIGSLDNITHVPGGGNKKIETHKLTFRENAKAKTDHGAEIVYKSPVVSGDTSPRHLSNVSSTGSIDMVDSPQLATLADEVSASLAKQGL

IC50 [1]	AUC0-24 h in brain [2]	Emax [1]	AUC0-9 h in brain [2]	Compound
830 nM				COc1cc(OCc2ccccn2)ccc1/C=C/c1cc(/C=C/c2ccnn2C)[nH]n1 [Example 42-2, 2-[[3-methoxy-4-[(E)-2-[5-[(E)-2-(2-methylpyrazol-3-yl)vinyl]-1H-pyrazol-3-yl]vinyl]phenoxy]methyl]pyridine]
510 nM	3499 ng · hr/g-tissue			Cn1cccc1/C=C/c1cc(/C=C/c2ccc(OCc3ccccn3)cc2F)n[nH]1 [Example 19-4, 2-[[3-fluoro-4-[(E)-2-[5-[(E)-2-(1-methylpyrrol-2-yl)vinyl]-1H-pyrazol-3-yl]vinyl]phenoxy]methyl]pyridine]
	9781 ng · hr/g-tissue			CN1CCN(c2ccc(/C=C/c3cc(/C=C/c4ccc5ccn(C)c5c4)[nH]n3)cc2)CC1 [Example 18-2, 1-methyl-6-[(E)-2-[3-[(E)-2-[4-(4-methylpiperazin-1-yl)phenyl]vinyl]-1H-pyrazol-5-yl]vinyl]indole]
		92%		CN1CCCN(c2ccc(/C=C/c3cc(/C=C/c4ccc5ccn(C)c5c4)[nH]n3)cc2)CC1 [Example 43-2, 1-methyl-6-[(E)-2-[3-[(E)-2-[4-(4-methyl-1,4-diazepan-1-yl)phenyl]vinyl]-1H-pyrazol-5-yl]vinyl]indole]
			869 ng · hr/g-tissue	COc1cc(OCCc2ccccn2)ccc1/C=C/c1cc(/C=C/c2ccc3ccn(C)c3c2)[nH]n1 [Example 44-2, 6-[(E)-2-[3-[(E)-2-[2-methoxy-4-[2-(2-pyridyl)ethoxy]phenyl]vinyl]-1H-pyrazol-5-yl]vinyl]-1-methylindole]
660 nM		90%	458 ng · hr/g-tissue	COc1cc(OCc2ccccn2)ccc1/C=C/c1cc(/C=C/c2cccn2C)[nH]n1 [Example 22-2, 2-[[3-methoxy-4-[(E)-2-[5-[(E)-2-(1-methylpyrrol-2-yl)vinyl]-1H-pyrazol-3-yl]vinyl]phenoxy]methyl]pyridine]
		93%		CN1CCCN(c2ccc(/C=C/c3cc(/C=C/c4cccn4C)[nH]n3)cc2)CC1 [Example 28-2, 1-methyl-4-[4-[(E)-2-[5-[(E)-2-(1-methylpyrrol-2-yl)vinyl]-1H-pyrazol-3-yl]vinyl]phenyl]-1,4-diazepane]
600 nM				Cn1ccc2ccc(/C=C/c3cc(/C=C/c4ccc(OCc5ccccn5)cc4F)n[nH]3)cc21 [Example 16-2, 6-[(E)-2-[3-[(E)-2-[2-fluoro-4-(2-pyridylmethoxy)phenyl]vinyl]-1H-pyrazol-5-yl]vinyl]-1-methyl indole]

Further lines, the compound ahead of its results:

Compound	IC50 [1]	AUC0-24 h in brain [2]	Emax [1]	AUC0-9 h in brain [2]
CN1CCN(c2ccc(/C=C/c3cc(/C=C/c4cccn4C)[nH]n3)cc2)CC1 [Example 27-3, 1-methyl-4-[4-[(E)-2-[5-[(E)-2-(1-methylpyrrol-2-yl)vinyl]-1H-pyrazol-3-yl]vinyl]phenyl]piperazine]		1302 ng · hr/g-tissue	91%	
Cn1ccc2ccc(/C=C/c3cc(/C=C/c4ccc(OCc5ccccn5)cc4)n[nH]3)cc21 [Example 17-2, 1-methyl-6-[(E)-2-[3-[(E)-2-[4-(2-pyridylmethoxy)phenyl]vinyl]-1H-pyrazol-5-yl]vinyl]indole]	650 nM			
COc1cc(OCCN2CCOCC2)ccc1/C=C/c1cc(/C=C/c2cccn2C)[nH]n1 [Example 21-2, 4-[2-[3-methoxy-4-[(E)-2-[5-[(E)-2-(1-methylpyrrol-2-yl)vinyl]-1H-pyrazol-3-yl]vinyl]phenoxy]ethyl]morpholine]			89%	
COc1cc(OCc2ccccn2)ccc1/C=C/c1cc(/C=C/c2cccc(C)n2)[nH]n1 [Example 25-2, 2-[(E)-2-[3-[(E)-2-[2-methoxy-4-(2-pyridylmethoxy)phenyl]vinyl]-1H-pyrazol-5-yl]vinyl]-6-methylpyridine]	840 nM			
COc1cc(OCCN2CCOCC2)ccc1/C=C/c1cc(/C=C/c2ccc3ccn(C)c3c2)[nH]n1 [Example 14-2, 4-[2-[3-methoxy-4-[(E)-2-[5-[(E)-2-(1-methylindol-6-yl)vinyl]-1H-pyrazol-3-yl]vinyl]phenoxy]ethyl]morpholine]		24639 ng · hr/g-tissue		
Cc1cc(OCc2ccccn2)ccc1/C=C/c1cc(/C=C/c2cccn2C)[nH]n1 [Example 32-5, 2-[[3-methyl-4-[(E)-2-[5-[(E)-2-(1-methylpyrrol-2-yl)vinyl]-1H-pyrazol-3-yl]vinyl]phenoxy]methyl]pyridine]	640 nM		90%	
C(=C\c1cc(/C=C/c2ccc3cc[nH]c3c2)[nH]n1)/c1cccc(OCCN2CCOCC2)c1 [Example 53-2, 4-[2-[3-[(E)-2-[5-[(E)-2-(1H-indol-6-yl)vinyl]-1H-pyrazol-3-yl]vinyl]phenoxy]ethyl]morpholine]	840 nM			
Cn1cccc1/C=C/c1cc(/C=C/c2ccc(OCc3ccccn3)cc2)n[nH]1 [Example 20-3, 2-[[4-[(E)-2-[5-[(E)-2-(1-methylpyrrol-2-yl)vinyl]-1H-pyrazol-3-yl]vinyl]phenoxy]methyl]pyridine]	550 nM	5306 ng · hr/g-tissue	89%	
COc1cc(OCc2ccccn2)ccc1/C=C/c1cc(/C=C/c2ccc(C)n2C)[nH]n1 [Example 23-2, 2-[[4-[(E)-2-[5-[(E)-2-(1,5-dimethylpyrrol-2-yl)vinyl]-1H-pyrazol-3-yl]vinyl]-3-methoxyphenoxy]methyl]pyridine]	590 nM		92%	
